Test results as given in ChEMBL document CHEMBL1147148, “Cytotoxic withanolides from Tubocapsicum anomalum” (J Nat Prod, 2007).
In brackets after ≈: the same amount, converted by molar mass.

Experiments:
[1] = tested on: MRC5; test: Cytotoxicity against human MRC5 cells by MTT method; type: cell-based
[2] = tested on: HepG2; test: Cytotoxicity against human HepG2 cells by MTT method; type: cell-based
[3] = tested on: A549; test: Cytotoxicity against human A549 cells by MTT method; type: cell-based
[4] = tested on: MDA-MB-231; test: Cytotoxicity against human MDA-MB-231 cells by MTT method; type: cell-based
[5] = tested on: MCF7; test: Cytotoxicity against human MCF7 cells by MTT method; type: cell-based
[6] = Cytotoxicity against human Hep3B cells by MTT method; type: cell-based, Hep 3B2

Row | SMILES | IC50 [1] | IC50 [2] | IC50 [3] | IC50 [4] | IC50 [5] | IC50 [6]
1 | CC1=C(C)C(=O)O[C@@H]([C@@H](C)[C@@]2(O)CC[C@H]3[C@@H]4C[C@H]5O[C@]56[C@@H](O)C=CC(=O)[C@]6(C)[C@H]4CC[C@@]32C)C1 | 0.81 µg/mL (≈ 1.72 µM) | 0.64 µg/mL (≈ 1.36 µM) | 0.88 µg/mL (≈ 1.87 µM) | 0.99 µg/mL (≈ 2.1 µM) | 1.98 µg/mL (≈ 4.21 µM) | 0.8 µg/mL (≈ 1.7 µM)
2 | CC1=C(C)C(=O)O[C@@H]([C@](C)(O)[C@@]2(O)CC[C@H]3[C@@H]4C[C@H]5O[C@]56[C@@H](O)C=CC(=O)[C@]6(C)[C@H]4CC[C@@]32C)C1 | 1.89 µg/mL (≈ 3.88 µM) | 0.49 µg/mL (≈ 1.01 µM) | 0.72 µg/mL (≈ 1.48 µM) | 0.71 µg/mL (≈ 1.46 µM) | 1.45 µg/mL (≈ 2.98 µM) | 0.85 µg/mL (≈ 1.75 µM)
3 | CC1=C(C)C(=O)O[C@@H]([C@@H](C)[C@@]2(O)CC[C@H]3[C@@H]4C[C@H](O)[C@]5(O)[C@@H](O)C=CC(=O)[C@]5(C)[C@H]4CC[C@@]32C)C1 |  | > 20 µg/mL | 8.01 µg/mL (≈ 16.4 µM) | 13.5 µg/mL (≈ 27.6 µM) | > 20 µg/mL | 7.19 µg/mL (≈ 14.7 µM)
4 | CC1=C(C)C(=O)O[C@@H]([C@](C)(O)[C@@]23O[C@@H]2C[C@H]2[C@@H]4C[C@H]5O[C@]56[C@@H](O)C=CC(=O)[C@]6(C)[C@H]4CC[C@@]23C)C1 [20-HYDROXYTUBOCAPSANOLIDE A] | 1.36 µg/mL (≈ 2.81 µM) | 0.73 µg/mL (≈ 1.51 µM) | 1.42 µg/mL (≈ 2.93 µM) | 0.99 µg/mL (≈ 2.04 µM) | 1.77 µg/mL (≈ 3.65 µM) | 0.99 µg/mL (≈ 2.04 µM)
5 | CC1=C(C)[C@H](O)[C@H]([C@@H](C)[C@@]23O[C@@H]2C[C@H]2[C@@H]4C[C@H]5O[C@]56[C@@H](O)C=CC(=O)[C@]6(C)[C@H]4CC[C@@]23C)OC1=O [23-HYDROXYTUBOCAPSANOLIDE A] | 0.9 µg/mL (≈ 1.86 µM) | 0.44 µg/mL (≈ 0.908 µM) | 0.79 µg/mL (≈ 1.63 µM) | 1.19 µg/mL (≈ 2.46 µM) | 2.05 µg/mL (≈ 4.23 µM) | 0.49 µg/mL (≈ 1.01 µM)
6 | C[C@@]12CC([C@@]3(O)CC[C@H]4[C@@H]5C[C@H]6O[C@]67[C@@H](O)C=CC(=O)[C@]7(C)[C@H]5CC[C@@]43C)[C@@H](C1)OC(=O)[C@]2(C)O (stereo partly drawn) [ANOMANOLIDE A] | 1.91 µg/mL (≈ 3.93 µM) | 3.11 µg/mL (≈ 6.39 µM) | 1.01 µg/mL (≈ 2.08 µM) | 1.37 µg/mL (≈ 2.82 µM) | 2.31 µg/mL (≈ 4.75 µM) | 3.63 µg/mL (≈ 7.46 µM)
7 | C[C@@]12CC([C@@]3(O)CC[C@H]4[C@@H]5C[C@H](O)[C@]6(O)[C@@H](O)C=CC(=O)[C@]6(C)[C@H]5CC[C@@]43C)[C@@H](C1)OC(=O)[C@]2(C)O (stereo partly drawn) [ANOMANOLIDE B] | 0.2 µg/mL (≈ 0.396 µM) | 0.97 µg/mL (≈ 1.92 µM) | 1.49 µg/mL (≈ 2.95 µM) | 0.7 µg/mL (≈ 1.39 µM) | 4.84 µg/mL (≈ 9.59 µM) | 3.17 µg/mL (≈ 6.28 µM)
8 | C[C@@]12CC([C@@]3(O)[C@H](O)C[C@H]4[C@@H]5C[C@H]6O[C@]67[C@@H](O)C=CC(=O)[C@]7(C)[C@H]5CC[C@@]43C)[C@@H](C1)OC(=O)[C@]2(C)O (stereo partly drawn) [ANOMANOLIDE C] |  | 4.41 µg/mL (≈ 8.77 µM) | 2.8 µg/mL (≈ 5.57 µM) | 1.58 µg/mL (≈ 3.14 µM) | 8.01 µg/mL (≈ 15.9 µM) | 1.85 µg/mL (≈ 3.68 µM)
9 | C[C@@]12CC([C@@]3(O)[C@H](O)C[C@H]4[C@@H]5C[C@H](Cl)[C@]6(O)[C@@H](O)C=CC(=O)[C@]6(C)[C@H]5CC[C@@]43C)[C@@H](C1)OC(=O)[C@]2(C)O (stereo partly drawn) [ANOMANOLIDE D] |  | > 20 µg/mL | > 20 µg/mL | > 20 µg/mL | > 20 µg/mL | 19 µg/mL (≈ 35.3 µM)
10 | C[C@@]12CC([C@@]3(O)[C@H](O)C[C@H]4[C@@H]5C[C@H](O)[C@]6(O)CC=CC(=O)[C@]6(C)[C@H]5CC[C@@]43C)[C@@H](C1)OC(=O)[C@]2(C)O (stereo partly drawn) [ANOMANOLIDE E] |  | > 20 µg/mL | > 20 µg/mL | > 20 µg/mL | > 20 µg/mL | > 20 µg/mL
11 | C[C@@]12CC([C@@]3(O)[C@H](O)C[C@H]4[C@@H]5CC[C@]6(O)[C@@H](O)C=CC(=O)[C@]6(C)[C@H]5CC[C@@]43C)[C@@H](C1)OC(=O)[C@]2(C)O (stereo partly drawn) [ANOMANOLIDE F] |  | > 20 µg/mL | > 20 µg/mL | > 20 µg/mL | > 20 µg/mL | > 20 µg/mL
12 | COc1cccc2c1C(=O)c1c(O)c3c(c(O)c1C2=O)C[C@@](O)(C(=O)CO)C[C@@H]3O[C@H]1C[C@H](N)[C@H](O)[C@H](C)O1 [DOXORUBICIN] | 0.77 µg/mL (≈ 1.42 µM) | 0.46 µg/mL (≈ 0.846 µM) | 0.42 µg/mL (≈ 0.773 µM) | 0.19 µg/mL (≈ 0.35 µM) |  | 0.45 µg/mL (≈ 0.828 µM)
13 | CC1=C(C)C(=O)O[C@@H]([C@@H](C)[C@@]23O[C@@H]2C[C@H]2[C@@H]4C[C@H]5O[C@]56[C@@H](O)C=CC(=O)[C@]6(C)[C@H]4CC[C@@]23C)C1 [TUBOCAPSANOLIDE A] | 0.73 µg/mL (≈ 1.56 µM) | 0.86 µg/mL (≈ 1.84 µM) | 0.47 µg/mL (≈ 1 µM) | 0.22 µg/mL (≈ 0.469 µM) | 1.47 µg/mL (≈ 3.14 µM) | 0.42 µg/mL (≈ 0.896 µM)
14 | CC1=C(C)C(=O)O[C@@H]([C@@H](C)[C@@]2(C)C3=C(C[C@H]2O)[C@@H]2C[C@H](O)[C@]4(O)[C@@H](O)C=CC(=O)[C@]4(C)[C@H]2CC3)C1 [TUBOCAPSENOLIDE F] |  | > 20 µg/mL | 6.04 µg/mL (≈ 12.4 µM) | 8.41 µg/mL (≈ 17.3 µM) | 14.7 µg/mL (≈ 30.2 µM) | 15.1 µg/mL (≈ 31 µM)
15 | CC1=C(C)C(=O)O[C@@H]([C@@H](C)[C@@]2(C)C3=C(C[C@H]2O)[C@@H]2C[C@H](Cl)[C@]4(O)[C@@H](O)C=CC(=O)[C@]4(C)[C@H]2CC3)C1 [TUBOCAPSENOLIDE G] |  | 19.1 µg/mL (≈ 37.9 µM) | 19.9 µg/mL (≈ 39.5 µM) | > 20 µg/mL | > 20 µg/mL | > 20 µg/mL
16 | C[C@]1(O)C[C@H]2OC(=O)[C@]1(C)C[C@H]2[C@@]1(O)[C@H](O)C[C@H]2[C@@H]3C[C@H](Cl)[C@]4(O)[C@@H](O)C=CC(=O)[C@]4(C)[C@H]3CC[C@@]21C [TUBONOLIDE A] |  | 5.09 µg/mL (≈ 9.44 µM) | 5.91 µg/mL (≈ 11 µM) | > 20 µg/mL | 12 µg/mL (≈ 22.3 µM) | 6.54 µg/mL (≈ 12.1 µM)
17 | CC1=C(CO)C(=O)O[C@@H]([C@@H](C)[C@H]2CC[C@H]3[C@@H]4C[C@H]5O[C@]56[C@@H](O)C=CC(=O)[C@]6(C)[C@H]4CC[C@]23C)C1 [WITHAFERIN A] | 0.07 µg/mL (≈ 0.149 µM) | 0.06 µg/mL (≈ 0.127 µM) | 0.02 µg/mL (≈ 0.0425 µM) | 0.02 µg/mL (≈ 0.0425 µM) | 0.05 µg/mL (≈ 0.106 µM) | 0.06 µg/mL (≈ 0.127 µM)
